# Results as given in US5750574A, “Fluorinated N-arylmethylamino derivatives of cyclobutene-3,4-diones” (American Home Products Corporation, priority 1997, dated 1998).
# Test system: hypertrophied bladder (detrussor) smooth muscle
# Assay: Inhibition of spontaneous contractions in vivo, hypertrophied rat bladder model
# Design: species or system female Sprague-Dawley rat
# Settings: 3 mg/kg p.o.; 4 animals; conscious rats
# Description: In addition, we tested the ability of compounds to inhibit the hyperactivity of hypertrophied bladder (detrussor) smooth muscle in conscious female rats with hypertrophied bladders and thereby alleviate urinary incontinence in rats according to the following protocol described by Malmgren (A. Malmgren, K. E. Andersson, C. Sjogren, P. O. Andersson, Effects of pinacidil and Cromakalim (BRL 34915) on Bladder Function in Rats with Detrusor Instability, J. Urol. 142:1134, 1989.):
# Female Sprague-Dawley rats, ranging in weight from 190-210 g are used. Up to 25 animals are prepared each time. After development of bladder hypertrophy 4-8 animals are used per test.
# Compounds are dissolved in PEG-200 and administered by gastric gavage or intraveneously in a volume of 5 ml/kg. For primary screening all drugs are administered at the arbitrary dose of 10 mg/kg p.o. to groups of 4 rats.
# The animals are anesthetized with halothane. Through a midline incision the bladder and urethra are exposed and a ligature of 4-0 silk is tied around the proximal urethra in the presence of a stainless steel rod (1 mm diameter) to produce a partial occlusion. The rod is then removed. The abdominal region is closed using surgical staples and each rat receives 150,000 units of bicillin C-R. The animals ar allowed six weeks to develop sufficient bladder hypertrophy. After six weeks, the ligature is removed under halothane anesthesia and a catheter (PE 60) with a cuff is placed in the dome of the bladder and secured with a purse string suture. The catheter is tunneled under the skin and exteriorized through an opening in the back of the neck. The abdominal incision is sutured and the free end of the catheter sealed. In order to prevent infections the rats receive an injection of bicillin C-R (150000 units/rat). Two days later the animals are used in cystometrical evaluations. The animals are placed in the metabolic cages and the catheter is attached (using a "T" connector) to a Statham pressure transducer (Model P23Db) and to a Harvard infusion pump. A plastic beaker attached to a force displacement transducer (Grass FT03) is placed under the rat's cage to collect and record urine volume. Animals are allowed 15-30 min to rest before the saline infusion (20 ml/hr for 20 minutes) is started for the first cystometry period. […]
# The following urodynamic variables are recorded: […]
# The mean value of each variable is calculated before and after compound administration. For each compound the changes in the variables measured are compared to the values obtained before treatment and expressed as percent inhibition. The data are also subjected to 2-way analysis of variance to determine significant (p<0.05) changes in the variable measured. […]
SMILES,% Ampl: Percent change in the amplitude of spontaneous contractions in the hypertrophied rat bladder model,% Red (F): Percent reduction in the total number of spontaneous contractions in the hypertrophied rat bladder model
"C[C@@H](Nc1c(NCc2ccc(F)cc2)c(=O)c1=O)C(C)(C)C [Example 1, (R)-3-(4-Fluoro-benzylamino)-4-(1,2,2-trimethyl-propylamino)-cyclobut-3-ene-1,2-dione]",-64 ± 3%,3 ± 25%
"CCC(C)(C)Nc1c(NCc2ccc(F)cc2)c(=O)c1=O [Example 7, 3-(1,1-Dimethyl-propylamino)-4-(4-fluoro-benzylamino)-cyclobut-3-ene-1,2 dione]",-3 ± 35%,67 ± 2%

# Test system: isolated rat bladder strips (smooth muscle)
# Assay: Inhibition of contractions in isolated rat bladder strips
# Design: species or system Sprague-Dawley rat
# Settings: 30 μM, 15 mM KCl-enhanced contractions, read-out: Percent inhibition at 30 μM (footnote a)
# Protocol: The smooth muscle relaxing activity of the compounds of this invention was established in accordance with standard pharmaceutically accepted test procedures with representative compounds as follows:
# Sprague-Dawley rats (150-200 g) are rendered unconscious by CO2 asphyxiation and then euthanized by cervical dislocation. The bladder is removed into warm (37° C.) physiological salt solution (PSS) of the following composition (mM): NaCl, 118.4; KCl, 4.7; CaCl2, 2.5; […]; NaHCO3, 24.9; KH2 PO4, 1.2; glucose, 11.1; EDTA, 0.023; gassed with 95% O2; […]; pH 7.4 The bladder is opened and then cut into strips 1-2 mm in width and 7-10 mm in length. The strips are subsequently suspended in a 10 mL tissue bath under an initial resting tension of 1.5 g. The strips are held in place by two surgical clips one of which is attached to a fixed hook while the other is attached to an isometric force transducer. […] The carbachol is then washed out and the tissue allowed to relax to its resting level of activity. Following a further 30 min. period of recovery an additional 15 mM KCl are introduced into the tissue bath. This increase in KCl concentration results in a large increase in the amplitude of spontaneous contractions (and initiation of contractions in previously quiescent strips) superimposed upon a small increase in basal tone. Following stabilization of this enhanced level of contractile activity, incremental increases in the concentration of test compound or vehicle are introduced into the tissue bath. Contractile activity is measured for each compound or vehicle concentration during the last minute of a 30 minute challenge.
# The isometric force developed by the bladder strips is measured using a […] to elicit 50% inhibition of pre-drug contractile activity (IC50 concentration) and is calculated from this concentration-response curve.
row,SMILES,inhibition at 30 µM
1,"CC(C)(C)Nc1c(NCc2ccc(OC(F)(F)F)cc2)c(=O)c1=O [Example 3, 3-tert-Butylamino-4-(4-trifluoromethoxy-benzylamino)-cyclobut-3-ene-1,2-dione]",16.2%
2,"C[C@@H](Nc1c(NCc2ccc(OC(F)(F)F)cc2)c(=O)c1=O)C(C)(C)C [Example 6, (R)-3-(4-trifluoromethoxy-benzylamino)-4-(1,2,2-trimethyl-propylamino)-cyclobut-3-ene-1,2-dione]",20.4%
3,"C[C@@H](Nc1c(NCc2cccc(C(F)(F)F)c2)c(=O)c1=O)C(C)(C)C [Example 13, (R)-3-(3-trifluoromethyl-benzylamino)-4-(1,2,2-trimethyl-propylamino) cyclobut-3-ene-1,2-dione]",40.1%
4,"C[C@@H](Nc1c(NCc2cccc(OC(F)(F)F)c2)c(=O)c1=O)C(C)(C)C [Example 16, (R)-3-(3-trifluoromethoxy-benzylamino)-4-(1,2,2-trimethyl-propylamino)-cyclobut3-ene-1,2-dione]",10%

# Same assay, conditions: 0.5 h, 15 mM KCl-enhanced contractions, 30 minute challenge, ± spread
row,SMILES,IC50
1,"C[C@@H](Nc1c(NCc2ccc(F)cc2)c(=O)c1=O)C(C)(C)C [Example 1, (R)-3-(4-Fluoro-benzylamino)-4-(1,2,2-trimethyl-propylamino)-cyclobut-3-ene-1,2-dione]",760 ± 460 nM
2,"CC(C)(C)Nc1c(NCc2cccc(F)c2)c(=O)c1=O [Example 8, 3-tert-Butylamino-4-(3-fluoro-benzylamino)-cyclobut-3-ene-1,2-dione]",2400 ± 360 nM
3,"C[C@@H](Nc1c(NCc2ccccc2C(F)(F)F)c(=O)c1=O)C(C)(C)C [Example 14, (R)-3-(2-trifluoromethyl-benzylamino)-4-(1,2,2-trimethyl-propylamino) cyclobut-3-ene-1,2-dione]",20400 ± 7800 nM

# Now from value to compound:
row,IC50,SMILES
1,6500 ± 1900 nM,"C[C@@H](Nc1c(NCc2ccc(C(F)(F)F)cc2)c(=O)c1=O)C(C)(C)C [Example 2, (R)-3-(4-trifluoromethyl-benzylamino)-4-(1,2,2-trimethyl-propylamino)-cyclobut-3-ene-1,2-dione]"
2,6500 ± 870 nM,"CC(C)(C)Nc1c(NCc2ccc(C(F)(F)F)cc2)c(=O)c1=O [Example 4, 3-tert-Butylamino-4-(4-trifluoromethyl-benzylamino)-cyclobut-3-ene-1,2-dione]"
3,1500 ± 320 nM,"CC(C)(C)Nc1c(NCc2ccc(F)cc2)c(=O)c1=O [Example 5, 3-tert-Butylamino-4-(4-fluoro-benzylamino)-cyclobut-3-ene-1,2-dione]"
4,360 ± 140 nM,"CCC(C)(C)Nc1c(NCc2ccc(F)cc2)c(=O)c1=O [Example 7, 3-(1,1-Dimethyl-propylamino)-4-(4-fluoro-benzylamino)-cyclobut-3-ene-1,2 dione]"
5,2080 ± 250 nM,"CC(C)(C)Nc1c(NCc2ccccc2F)c(=O)c1=O [Example 9, 3-tert-Butylamino-4-(2-fluoro-benzylamino)-cyclobut-3-ene-1,2-dione]"
6,7900 ± 2700 nM,"CC(C)(C)Nc1c(NCc2cccc(C(F)(F)F)c2)c(=O)c1=O [Example 10, 3-tert-Butylamino-4-(3-trifluoromethyl-benzylamino)-cyclobut-3-ene-1,2-dione]"
7,2300 ± 510 nM,"CC(C)(C)Nc1c(NCc2ccccc2C(F)(F)F)c(=O)c1=O [Example 11, 3-tert-Butylamino-4-(2-trifluoromethyl-benzylamino)-cyclobut-3-ene-1,2-dione]"
8,13600 ± 3300 nM,"CC(C)(C)Nc1c(NCc2cccc(OC(F)(F)F)c2)c(=O)c1=O [Example 12, 3-tert-Butylamino-4-(3-trifluoromethoxy-benzylamino)-cyclobut-3-ene-1,2-dione]"
9,1230 ± 220 nM,"C[C@@H](Nc1c(NCc2ccccc2F)c(=O)c1=O)C(C)(C)C [Example 15, (R)-3-(2-fluoro-benzylamino)-4-(1,2,2-trimethyl-propylamino) cyclobut-3-ene-1,2-dione]"
